In ChEMBL document CHEMBL1122017, “Synthesis and peripheral cardiovascular action of cis- and trans-2-(3,4-dimethoxybenzyl)cyclopentylamine hydrochlorides” (1982):

Experiments:
[1] = system: Canis familiaris; assay: Mean percent decrease in mean blood pressure was determined at the dose of 15 umol/kg in mongrel dogs; format: functional, Canis lupus familiaris
[2] = system: Canis familiaris; assay: Mean percent decrease in mean blood pressure was determined at the dose of 15 umol/kg (2 minutes after injection) in mongrel dogs; format: functional, Canis lupus familiaris

SMILES | Decrease in blood pressure [1] | Decrease in blood pressure [2]
COc1ccc(C[C@@H]2CCC[C@@H]2N)cc1OC | 30% | 37.9%
COc1ccc(C[C@@H]2CCC[C@H]2N)cc1OC | 25.1% | 7.5%
